Tests used:
PKG-1α = experiment: PKG activity in transfected HEK-293T cells; format: cell-based, human; settings: HEK-293T; SIN-1 500 μM, 30 min
Experimental: To determine the role of tyrosine 247 and tyrosine 425 in mediating the nitration dependent inhibition of PKG-1α kinase activity, Y247F- and Y425F-PKG-1α mutants were generated and expressed in HEK-293T cells. HEK-293T cells were transiently transfected with expression plasmids containing WT-, Y247F-, or Y425F-PKG-1α for 48 h. […] Protein extracts were immunoprecipitated using an antibody raised against PKG-1α and the level of nitrated PKG-1α determined by probing the membranes with an antiserum raised against 3-NT. The blots were then stripped and re-probed for PKG-1α to normalize for the efficiency of the immunoprecipitation.
Total PKG activity was determined using a non-radioactive immunoassay in cell lysates, according to the manufacturer's directions. […]
After incubation for 30 min at 30° C. to allow the phosphorylation of the bound substrate, an HRP conjugated anti-phosphothreonine specific antibody was added to convert a chromogenic substrate to a colorimetric substrate that was subsequently read spectrophotometrically at 450 nm. The change in absorbance reflected the relative activity of PKG in the sample. […] The kinetic constants were determined using nonlinear regression (curve fit) analysis (GraphPad Prism Software Inc.).

[1] = system: pulmonary artery smooth muscle cells (PASMC); experiment: PASMC immunocytochemistry for SM22-α and PCNA; format: cell-based, lamb; settings: SIN-1 500 μM, 48 h
Experimental: Semi-confluent PASMC grown on a coverslip in a 6-well plate were transfected with a mammalian expression plasmid containing either a wild-type (WT)- or Y247F-PKG-1α cDNA. After 20 h, the cells were serum starved (1% FBS) for 4 h then exposed or not to SIN-1 (500 μM) for 48 h. The cells were washed with PBS, methanol fixed (5 min), and permeabilized in 0.1% PBS-Tween (20 min). The cells were then washed 3× with PBS and blocked for non-specific protein-protein interactions with 1% BSA in PBS (1 h). The antibodies, smooth muscle (SM) 22-α (5 μg/ml) or proliferating cell nuclear antigen (PCNA) (1 μg/ml) diluted in 1% BSA in PBS, were added and incubated overnight at 4° C. The cells were again washed 3× with PBS and incubated in secondary antibody (green): Alexa Fluor 488 goat anti-mouse IgG (H+L) (1/1000 dilution) for PCNA or Alexa Fluor 488 donkey anti-goat IgG (H+L) (1/1000 dilution) for SM22-α for 1 h in the dark. DAPI was used to stain the cell nuclei (blue) at a concentration of 0.5 μg/ml for 3 min. The cells were rinsed 3× with PBS, and the coverslips were mounted on the slides with ProLong Gold Antifade and analyzed with the use of a Nikon Eclipse TE 300 inverted fluorescent microscope with a 60× oil objective and a Hamamatsu digital camera.
To assess the effect of nitration on pulmonary arterial smooth muscle cell (PASMC) phenotype, PASMC were transiently transfected with expression plasmids containing WT-PKG-1α, Y247F-PKG-1α, or PDEST40 (as a control) for 20 h. Cells were then exposed or not to SIN-1 (500 μM, 48 h) and the effect on synthetic and contractile markers determined. The levels of myosin heavy chain (MYH, FIG. 3A), Calponin-1 (FIG. 3B), and Vimentin (FIG. 3C) were determined. The blots were then stripped and re-probed for β-actin to normalize for protein loading. PASMC were also subjected to immunohistochemistry using antibodies to SM22-α (5 μg/ml) and PCNA (1 μg/ml). Relevant secondary antibodies linked to Alexa Fluor 488 (green) were then applied. DAPI was also used to stain (blue) the cell nuclei.

[2] = system: pulmonary artery smooth muscle cells (PASMC); experiment: PASMC cell growth (cell count); format: cell-based, lamb; settings: WT-PKG-1α transfected PASMC; SIN-1 500 μM, 48 h
Experimental: Pulmonary artery smooth muscle cells (PASMC) were grown on a 10 cm dish to 75% confluence, transfected with WT-PKG-1α or Y247F-PKG-1α cDNA using a Qiagen transfection kit, according to manufacturer's instructions, and incubated at 37° C. for 20 h. […] The cells were then trypsinized, seeded onto a 6-well plate at a density of 2.5×10^4 cells per well, and grown for an additional 4 h in serum-free DMEM growth medium containing 1% FBS and antibiotics. The cells were then treated with or without SIN-1 (500 μM) and allowed to grow at 37° C. in the incubator for an additional 48 h. The cellular proliferation was evaluated by counting the cells with a hemacytometer (Cascade Biologicals™, Portland, Oreg.) after the trypsinization of the PASMC monolayers.
Primary cultures of pulmonary artery smooth muscle cells (PASMC) from 4-week old lambs were isolated by the explant technique, as previously described (Wedgwood, S., et al., Circulation Research 89, 357-364 (2001)). Briefly, a segment of the main pulmonary artery from a 4-week old lamb was excised and placed in a sterile 10 cm dish containing DMEM supplemented with 1 gm/1 glucose. The segment was stripped of adventitia with a sterile forceps. The main pulmonary artery segment was then cut longitudinally to open the vessel, and the endothelial layer was removed by gentle rubbing with a cell scraper. […]

“3-morpholinosydnonimine N-ethylcarbamide [SIN-1]” was tested, and the “cGMP-independent PKG activity” value (PKG-1α) was “did not alter”, the PCNA staining ([1]; WT-PKG-1α expressing PASMC) was “increased” and the SM-22α expression ([1]; WT-PKG-1α expressing PASMC) was “attenuated”. For the same substance, the “filamentous SM22-α expression and nuclear staining of PCNA” value ([1]; Y247F-PKG-1α expressing PASMC) was “unaffected” and the proliferation [2] was “stimulated”.

Reference: patent US9551711B2, “Compositions and methods for detecting nitration of PKG-1α and methods of use thereof” (Augusta University Research Institute, Inc., priority 2013, dated 2017)
